Values after ≈ are worked out from the molar mass of the structure shown. Read-outs that look alike come from different tables or passages of the source.
Key:
Format in all cases: cell-based
[1] = tested on: E. faecalis; experiment: MIC, broth microdilution; conditions: for MIC: Enterococcus faecalis
Source text: (§1) We determined the minimal inhibitory concentrations (MIC) of the teicoplanin conjugates for a large panel of Gram-positive bacterial strains, using vancomycin, unmodified teicoplanin, dalbavancin and oritavancin as reference compounds. […] The bacterial strains (see Suppl. Table S5 for all details) were selected to achieve maximum diversity of multidrug-resistance and include strains with known mechanisms of resistance to glycopeptides in clinical use. The S. epidermidis and S. haemolyticus strains resistant to dalbavancin and oritavancin were obtained in vitro from clinical isolates sensitive to the glycopeptide antibiotics.

[2] = tested on: S. aureus; experiment: MIC, broth microdilution; conditions: for MIC: Staphylococcus aureus
Source text: as §1

[3] = tested on: S. haemolyticus; experiment: MIC, broth microdilution; conditions: for MIC: Staphylococcus haemolyticus
Source text: as §1

[4] = tested on: S.pyogenes; experiment: MIC, broth microdilution; conditions: for MIC: Streptococcus pyogenes
Source text: as §1

[5] = tested on: E. faecium; experiment: microbe, parasite or virus in culture; conditions: for MIC: Enterococcus faecium
Source text: as §1

[6] = tested on: S. epidermidis; experiment: microbe, parasite or virus in culture; conditions: for MIC: Staphylococcus epidermidis
Source text: as §1

`CN[C@H](CC(C)C)C(=O)N[C@H]1C(=O)N[C@@H](CC(N)=O)C(=O)N[C@H]2C(=O)N[C@H]3C(=O)N[C@H](C(=O)N[C@H](C(=O)O)c4cc(O)cc(O)c4-c4cc3ccc4O)[C@H](O)c3ccc(c(Cl)c3)Oc3cc2cc(c3O[C@@H]2O[C@H](CO)[C@@H](O)[C@H](O)[C@H]2O[C@H]2C[C@](C)(N)[C@H](O)[C@H](C)O2)Oc2ccc(cc2Cl)[C@H]1O` [VAN, vancomycin, reference compound] showed an MIC ([1]; read-out: Average MIC value, E. faecalis VAN^R,TEI^R/VanA, 1 strain) greater than 64 µg/mL, an MIC ([1]; read-out: Average MIC value, E. faecalis VAN^S, TEI^S, 2 strains) of 0.25 µg/mL (≈ 0.173 µM) and an MIC ([1]; read-out: MIC value, E.faecalis JH2-2) of 0.25 µg/mL (≈ 0.173 µM). It also gave an MIC ([1]; read-out: MIC value, E.faecalis OG1RF) of 0.25 µg/mL (≈ 0.173 µM), an MIC ([1]; read-out: MIC value, E.faecalis V583, VAN,TEI/VanA) greater than 64 µg/mL and an MIC ([2]; ATCC 29213 / MSSA, read-out: MIC value, S. aureus ATCC29213, MSSA) of 1 µg/mL (≈ 0.69 µM). The MIC ([2]; MRSA / USA300, read-out: MIC value, S. aureus USA300, CA-MRSA) was 0.25 µg/mL (≈ 0.173 µM), the MIC ([2]; MRSA, read-out: Average MIC value, S. aureus CA-MRSA, 1 strain) was 0.25 µg/mL (≈ 0.173 µM) and the MIC ([2]; MRSA, read-out: Average MIC value, S. aureus MRSA, 7 strains) was 1.25 µg/mL (≈ 0.863 µM). It also gave an MIC ([2]; MRSA, read-out: MIC value, S. aureus 73OL, MRSA) of 1 µg/mL (≈ 0.69 µM), an MIC ([2]; MRSA, read-out: MIC value, S. aureus 214OL, MRSA) of 1 µg/mL (≈ 0.69 µM) and an MIC ([2]; MRSA, read-out: MIC value, S. aureus 1041OL, MRSA) of 1 µg/mL (≈ 0.69 µM). The MIC ([2]; MRSA, read-out: MIC value, S. aureus A6918, MRSA) was 1 µg/mL (≈ 0.69 µM), the MIC ([2]; MRSA, read-out: MIC value, S. aureus A6919, MRSA) was 0.25 µg/mL (≈ 0.173 µM) and the MIC ([2]; MRSA, read-out: MIC value, S. aureus Mu50, MRSA) was 4 µg/mL (≈ 2.76 µM). The MIC ([2]; MRSA, read-out: MIC value, S. aureus N315, MRSA) was 0.5 µg/mL (≈ 0.345 µM), the MIC ([2]; MSSA / NEWMAN, read-out: MIC value, S. aureus Newman, MSSA) was 0.5 µg/mL (≈ 0.345 µM) and the MIC ([2]; MSSA, read-out: Average MIC value, S. aureus MSSA, 4 strains) was 0.625 µg/mL (≈ 0.431 µM). The MIC ([2]; MSSA, read-out: MIC value, S. aureus MSSA476, MSSA) was 0.5 µg/mL (≈ 0.345 µM), the MIC ([2]; MSSA, read-out: MIC value, S. aureus SA564, MSSA) was 0.5 µg/mL (≈ 0.345 µM) and the MIC ([3]; S. haemolyticus mecA, 6 strains, read-out: Average MIC value) was 28 µg/mL (≈ 19.3 µM). The MIC ([3]; S.haemolyticus DALB_R1, mecA, read-out: MIC value) was 32 µg/mL (≈ 22.1 µM), the MIC ([3]; S.haemolyticus DALB_R2, mecA, read-out: MIC value) was 64 µg/mL (≈ 44.2 µM) and the MIC ([3]; S.haemolyticus DALB_R3, mecA, read-out: MIC value) was 8 µg/mL (≈ 5.52 µM). It also gave an MIC ([3]; S.haemolyticus DALB_R4, mecA, read-out: MIC value) of 32 µg/mL (≈ 22.1 µM), an MIC ([3]; S.haemolyticus DALB_R5, mecA, read-out: MIC value) of 16 µg/mL (≈ 11 µM) and an MIC ([3]; S.haemolyticus ORI_R1, mecA, read-out: MIC value) of 16 µg/mL (≈ 11 µM). It also gave an MIC ([4]; read-out: MIC value, S.pyogenes H232) of 0.0625 µg/mL (≈ 0.0431 µM), an MIC ([4]; read-out: MIC value, S.pyogenes H550) of 0.0625 µg/mL (≈ 0.0431 µM) and an MIC ([4]; read-out: MIC value, S.pyogenes H578) of 0.0625 µg/mL (≈ 0.0431 µM). For the same compound, the MIC ([5]; read-out: Average MIC value, E. faecium VAN^R,TEI^R/VanA, 8 strains) was greater than 64 µg/mL, the MIC ([5]; read-out: Average MIC value, E. faecium VAN^S, TEI^S, 1 strain) was 0.25 µg/mL (≈ 0.173 µM) and the MIC ([5]; read-out: MIC value, E.faecium E335, VAN,TEI,LNZ/VanA) was greater than 64 µg/mL. The MIC ([5]; read-out: MIC value, E.faecium E355, VAN,TEI,LNZ/VanA) was greater than 64 µg/mL, the MIC ([5]; read-out: MIC value, E.faecium E832, VAN,TEI,LNZ/VanA) was greater than 64 µg/mL and the MIC ([5]; read-out: MIC value, E.faecium E854, VAN,TEI,LNZ/VanA) was greater than 64 µg/mL. The MIC ([5]; read-out: MIC value, E.faecium E859, VAN,TEI,LNZ/VanA) was greater than 64 µg/mL, the MIC ([5]; read-out: MIC value, E.faecium E1114, VAN,TEI,LNZ/VanA) was greater than 64 µg/mL and the MIC ([5]; read-out: MIC value, E.faecium E1131, VAN,TEI,LNZ/VanA) was greater than 64 µg/mL. For the same compound, the MIC ([5]; read-out: MIC value, E.faecium E1132, VAN,TEI,LNZ/VanA) was greater than 64 µg/mL, the MIC ([5]; read-out: MIC value, E.faecium TX0016) was 0.25 µg/mL (≈ 0.173 µM) and the MIC ([6]; read-out: Average MIC value, S. epidermidis mecA, 6 strains) was 6.67 µg/mL (≈ 4.6 µM). For the same compound, the MIC ([6]; read-out: MIC value, S.epidermidis ORI_R1, mecA) was 8 µg/mL (≈ 5.52 µM), the MIC ([6]; read-out: MIC value, S.epidermidis ORI_R2, mecA) was 8 µg/mL (≈ 5.52 µM) and the MIC ([6]; read-out: MIC value, S.epidermidis ORI_R3, mecA) was 8 µg/mL (≈ 5.52 µM). The MIC ([6]; read-out: MIC value, S.epidermidis ORI_R4, mecA) was 4 µg/mL (≈ 2.76 µM), the MIC ([6]; read-out: MIC value, S.epidermidis TEI_R1, mecA) was 4 µg/mL (≈ 2.76 µM) and the MIC ([6]; read-out: MIC value, S.epidermidis TEI_R2, mecA) was 8 µg/mL (≈ 5.52 µM).
In the case of `CN[C@H]1C(=O)N[C@@H]2Cc3ccc(cc3)Oc3cc4cc(c3O[C@@H]3O[C@H](C(=O)O)[C@@H](O)[C@H](O)[C@H]3NC(=O)CCCCCCCCC(C)C)Oc3ccc(cc3Cl)[C@@H](O)[C@@H]3NC(=O)[C@H](NC(=O)[C@@H]4NC(=O)[C@@H](NC2=O)c2cc(cc(O)c2Cl)Oc2cc1ccc2O)c1ccc(O)c(c1)-c1c(O[C@H]2O[C@H](CO)[C@@H](O)[C@H](O)[C@@H]2O)cc(O)cc1[C@@H](C(=O)NCCCN(C)C)NC3=O` [DALB, dalbavancin, reference compound], the “Average MIC value” ([1]; E. faecalis VAN^R,TEI^R/VanA, 1 strain) is reported as 64 µg/mL, the “Average MIC value” ([1]; E. faecalis VAN^S, TEI^S, 2 strains) is reported as 0.25 µg/mL and the MIC value ([1]; E.faecalis JH2-2) is reported as 0,25 µg/ml. For the same compound, the MIC value ([1]; E.faecalis OG1RF) was 0,25 µg/ml, the MIC value ([1]; E.faecalis V583, VAN,TEI/VanA) was 64 µg/mL (≈ 35.2 µM) and the MIC value ([2]; S. aureus 73OL, MRSA) was 0,125 µg/ml. For the same compound, the MIC value ([2]; S. aureus 214OL, MRSA) was 0,125 µg/ml, the MIC value ([2]; S. aureus 1041OL, MRSA) was 0,03125 µg/ml and the MIC value ([2]; S. aureus A6918, MRSA) was 0,125 µg/ml. For the same compound, the MIC value ([2]; S. aureus A6919, MRSA) was 0,0625 µg/ml, the MIC value ([2]; S. aureus ATCC29213, MSSA) was 0,125 µg/ml and the “Average MIC value” ([2]; S. aureus CA-MRSA, 1 strain) was 0.0625 µg/mL. For the same compound, the “Average MIC value” ([2]; S. aureus MRSA, 7 strains) was 0.1 µg/mL, the MIC value ([2]; S. aureus MSSA476, MSSA) was 0,125 µg/ml and the “Average MIC value” ([2]; S. aureus MSSA, 4 strains) was 0.125 µg/mL. The MIC value ([2]; S. aureus Mu50, MRSA) was 0,125 µg/ml, the MIC value ([2]; S. aureus N315, MRSA) was 0,125 µg/ml and the MIC value ([2]; S. aureus Newman, MSSA) was 0,125 µg/ml. The MIC value ([2]; S. aureus SA564, MSSA) was 0,125 µg/ml, the MIC value ([2]; S. aureus USA300, CA-MRSA) was 0,0625 µg/ml and the “Average MIC value” ([3]; S. haemolyticus mecA, 6 strains) was 3.83 µg/mL. The MIC value ([3]; S.haemolyticus DALB_R1, mecA) was 2 µg/mL (≈ 1.1 µM), the MIC value ([3]; S.haemolyticus DALB_R2, mecA) was 8 µg/mL (≈ 4.4 µM) and the MIC value ([3]; S.haemolyticus DALB_R3, mecA) was 2 µg/mL (≈ 1.1 µM). The MIC value ([3]; S.haemolyticus DALB_R4, mecA) was 2 µg/mL (≈ 1.1 µM), the MIC value ([3]; S.haemolyticus DALB_R5, mecA) was 1 µg/mL (≈ 0.55 µM) and the MIC value ([3]; S.haemolyticus ORI_R1, mecA) was 8 µg/mL (≈ 4.4 µM). For the same compound, the MIC value ([4]; S.pyogenes H232) was 0,0625 µg/ml, the MIC value ([4]; S.pyogenes H550) was 0,25 µg/ml and the MIC value ([4]; S.pyogenes H578) was 0,25 µg/ml. For the same compound, the “Average MIC value” ([5]; E. faecium VAN^R,TEI^R/VanA, 8 strains) was 48 µg/mL, the “Average MIC value” ([5]; E. faecium VAN^S, TEI^S, 1 strain) was 0.25 µg/mL and the MIC value ([5]; E.faecium E335, VAN,TEI,LNZ/VanA) was 64 µg/mL (≈ 35.2 µM). The MIC value ([5]; E.faecium E355, VAN,TEI,LNZ/VanA) was 32 µg/mL (≈ 17.6 µM), the MIC value ([5]; E.faecium E832, VAN,TEI,LNZ/VanA) was 64 µg/mL (≈ 35.2 µM) and the MIC value ([5]; E.faecium E854, VAN,TEI,LNZ/VanA) was 32 µg/mL (≈ 17.6 µM). The MIC value ([5]; E.faecium E859, VAN,TEI,LNZ/VanA) was 32 µg/mL (≈ 17.6 µM), the MIC value ([5]; E.faecium E1114, VAN,TEI,LNZ/VanA) was 64 µg/mL (≈ 35.2 µM) and the MIC value ([5]; E.faecium E1131, VAN,TEI,LNZ/VanA) was 64 µg/mL (≈ 35.2 µM). For the same compound, the MIC value ([5]; E.faecium E1132, VAN,TEI,LNZ/VanA) was 32 µg/mL (≈ 17.6 µM), the MIC value ([5]; E.faecium TX0016) was 0,25 µg/ml and the “Average MIC value” ([6]; S. epidermidis mecA, 6 strains) was 1.77 µg/mL. The MIC value ([6]; S.epidermidis ORI_R1, mecA) was 4 µg/mL (≈ 2.2 µM), the MIC value ([6]; S.epidermidis ORI_R2, mecA) was 4 µg/mL (≈ 2.2 µM) and the MIC value ([6]; S.epidermidis ORI_R3, mecA) was 2 µg/mL (≈ 1.1 µM). The MIC value ([6]; S.epidermidis ORI_R4, mecA) was 0,25 µg/ml, the MIC value ([6]; S.epidermidis TEI_R1, mecA) was 0,25 µg/ml and the MIC value ([6]; S.epidermidis TEI_R2, mecA) was 0,125 µg/ml.

Reference: publication PMC9511441, “Semisynthetic teicoplanin derivatives with dual antimicrobial activity against SARS-CoV-2 and multiresistant bacteria” (Scientific Reports, 2022)
